Data reported in US20230340012A1, “NATURAL AND SYNTHETIC COMPOUNDS FOR TREATING CANCER AND OTHER DISEASES” (PACIFIC ARROW LIMITED, priority 2009, published 2023).
Converted amounts (≈) assume the structure as drawn. “And” between values parts separate entries of the source, which are not always exact repeats. Equal values may be shown once.

Legend:
ES2 cells = assay: Inhibition of cell adhesion, ES2; format: cell-based, human; details: for ES2 cells attached to flasks compared to no drug controls / unattached cells alive: 5 ug/ml; for ES2 cells attached to flasks compared to no drug controls: 5 hours; for unattached cells alive: trypan Blue exclusion; for unattached cells alive / cells attached to flasks: ES2 or Hey8A; for cells attached to flasks: 10 ug/ml
Experimental: (§1) Methods and Results. ES2 or Hey8A cells were plated in T25 flasks with medium containing 5 ug/ml of compounds selected from structure (2A) including E4A-Tig-R, E4A-Tig-V, E4A-Tig-S, E4A-Tig-N, E4A-Tig-Q, E4A-Tig-T. Cultures were incubated for 5 hours. Attached cells were removed from flasks by trypsinization and the numbers/amounts were counted. Compared to no drug controls, 80 ± 4% of ES2 cells and 60 ± 4% of Hey8A cells were found attached to flasks under this condition. At 5 ug/ml of above compounds, over 90% of unattached cells are alive as determined by the trypan Blue exclusion assay and by their ability to re-attach to flasks when plating in medium without tested compounds. However, with 10 ug/ml tested compounds, less than 40% of cells attached to flasks and many of them are dead cells.

HTB-9 = assay: MTT assay, bladder (HTB-9); format: cell-based, human
Experimental: (§2) Cells. HTB-9 (bladder), HeLa-S3 (cervix), DU145 (prostate), H460 (lung), MCF-7 (breast), K562 (leukemia), HCT116 (colon), HepG2 (liver), U2OS (bone), T98G (brain), SK-MEL-5 (Skin) and OVCAR 3, ES2 (ovary), Pancreas (Capan), Mouth (KB), Kidney(A498).
(§3) MTT Assay. The procedure for MTT assay followed the method described by Carmichael et al. (1987) with modifications. The cells were seeded into a 96-well plate at for 24 hours before drug-treatment. The cells were then exposed to the drugs for 48, 72, or 96 hours. After the drug-treatment, MTT (0.5 mg/mL) was added to cultures and incubated for an hour. The formazan (product of the reduction of tetrazolium by viable cells) formed and was dissolved with DMSO and the O.D. at 490 nm, and was measured by an ELISA reader. The MTT level of the cells before drug-treatment was also measured (T0). The % cell-growth (%G) is calculated as: %G = (TD-T0 / TC-T0) x 100(1), where TC or TD represents O.D. readings of control or drug-treated cells. When T0 > TD, then the cytotoxicity (LC) expressed as % of the control is calculated as: %LC = (TD-T0 / T0) × 100(2).

DU145 = assay: MTT assay, prostate (DU145); format: cell-based, human
Experimental: as §2, §3

MCF-7 = assay: MTT assay, breast (MCF-7); format: cell-based, human
Experimental: as §2, §3

SK-Mel-5 = assay: MTT assay, skin (SK-Mel-5); format: cell-based, human
Experimental: as §2, §3

Capan = assay: MTT assay, pancreas (Capan); format: cell-based, human
Experimental: as §2, §3
• A. Cells: Capan cells are derived from Human pancreas carcinoma (pancreas). Cells were grown in RPMI 1640 medium supplemented with 10% FCS, antibiotics and glutamine. 10000 cells were seeded in a well (96-welled plate) for one day before drug-treatment • B. Drug treatment: • -- Drug: Tig-S (stored as a 1000x stock solution in DMSO) was used. • -- Drug concentration used: from 0.15 - 20 ug/ml. • -- Drug-treatment was carried out for 3 days. • C. At the end of the drug-treatment, cytotoxic test was performed with MTT assay. The percentage of drug-treated cells’ growth as compared to those of the no drug control is determined.

A498 = assay: MTT assay, kidney (A498); format: cell-based, human
Experimental: as §2, §3

HepG2 = assay: MTT assay, liver (HepG2); format: cell-based, human
Experimental: as §2, §3

cancer cells = assay: Inhibition of cancer growth, cancer invasion, cell invasion or cancer cell invasion; format: cell-based
U2OS = assay: MTT assay, bone (U2OS); format: cell-based, human
Experimental: as §2, §3

Hey8A cells = assay: Inhibition of cell adhesion, Hey8A; format: cell-based; details: 5 ug/ml, 5 hours
Experimental: as §1

ES2 = assay: MTT assay, ovary (ES2); format: cell-based, human
Experimental: as §2, §3
Method: A. Cells • -WI38 is a Normal Lung fibroblast. Cells were grown in MEM medium supplemented with 10% FCS, antibiotics and glutamine. 20 K cells were seeded per well (96-welled plate) for one day before drug-treatment • -ES2 is an Ovary Clear cells carcinoma. Cells were grown in RPMI-1640 medium supplemented with 10% FCS, antibiotics and glutamine. 10 K cells were seeded per well (96-welled plate) for one day before drug-treatment.
B. Drug treatment: • -Drug: Tig-S. stored as 1000x stock solution in DMSO. • -Drug concentration used: from 0.15 - 20 ug/ml. • -Drug-treatment was carried out for 2 days (ES2) or 6 days (WI38). For the 6 days incubation, cells were fed with fresh medium (with drug) on day 3 and 5.
C. At the end of the drug-treatment, cytotoxic test was performed with MTT assay.

KB = assay: MTT assay, mouth (KB); format: cell-based, human
Experimental: as §2, §3

T98G = assay: MTT assay, brain (T98G); format: cell-based, human
Experimental: as §2, §3

OVCAR3 = assay: MTT assay, ovary (OVCAR3); format: cell-based, human; details: for IC50 of ovary (OVCAR3): MTT
Experimental: as §2, §3

HCT116 = assay: MTT assay, colon (HCT116); format: cell-based, human
Experimental: as §2, §3

HeLa = assay: MTT assay, cervix (HeLa); format: cell-based, human
Experimental: as §2, §3

Compound | ES2 cells attached to flasks compared to no drug controls (ES2 cells) [%] | unattached cells alive (ES2 cells) | cells attached to flasks (ES2 cells) | IC50 of bladder (HTB-9) (HTB-9) [µg/mL] | IC50 of prostate (DU145) (DU145) [µg/mL] | IC50 of breast (MCF-7) (MCF-7) [µg/mL] | IC50 of skin (SK-Mel-5) (SK-Mel-5) [µg/mL] | IC50 of pancreas (Capan) (Capan) [µg/mL] | IC50 of kidney (A498) (A498) [µg/mL] | IC50 of liver (HepG2) (HepG2) [µg/mL] | anti-cancer activity (cancer cells) | IC50 of bone (U2OS) (U2OS) [µg/mL] | Hey8A cells attached to flasks compared to no drug controls (Hey8A cells) [%] | IC50 of ovary (ES2) (ES2; MTT) | IC50 of mouth (KB) (KB) [µg/mL] | IC50 of brain (T98G) (T98G) [µg/mL] | IC50 of ovary (OVCAR3) (OVCAR3) [µg/mL] | IC50 of colon (HCT116) (HCT116) [µg/mL] | IC50 of cervix (HeLa) (HeLa) [µg/mL] | other results
24,28-O-Tigloyl-3β,16α, 21β, 22a, 24β, 28-hexahydroxyolean-12-ene [Tig-R] | 80 ± 4 | over 90% | less than 40% | 2.5 | 3.6 | 4.5 | 5.1 | 2.4 | 3.5 | 6 | have anti-cancer activities | 4.5 | 60 ± 4 | 2.8 ug/ml and about 2.8 ug/ml | 3 | 8 | 5.8 | 5.2 | – | –
CC=C(C)C(=O)OCC1(C)C(O)CCC2(C)C1CCC1(C)C2CC=C2C3CC(C)(C)C(O)C(O)C3(CO)C(O)CC21C (stereo not shown) [Tig-N] | 80 ± 4 | over 90% | less than 40% | 7.5 | 4.8 | 13 | 15 | 8 | 11 | 18 | have anti-cancer activities | 15 | 60 ± 4 | 9 µg/mL | 9 | 19 | 18 | 15 | 15 | –
CC=C(C)C(=O)OCC1(C)C(O)CCC2(C)C1CCC1(C)C2CC=C2C3CC(C)(C)C(OC(=O)C(C)=CC)C(O)C3(CO)C(O)CC21C (stereo not shown) [Tig-S] | 80 ± 4 | over 90% | less than 40% | 3.5 | 4.3 | 6.3 | 5.8 | 2.9 | 4.8 | 8.5 | have anti-cancer activities | 5.2 | 60 ± 4 | – | – | 9 | 6.5 | 6.6 | 7 | IC50, pancreas cancer (Capan) cells' growth (Capan; 3 days): about 1 ug/ml; IC50, ES2 cells (ES2; 2 days drug treatment, MTT): 0.3 µg/mL (≈ 0.447 µM); IC100, ES2 cells (ES2; MTT OD after treatment equal to OD before treatment, 2 days): 0.16 to 0.3 µg/mL and 0.15 to 0.3 µg/mL; IC50 in ES2 cells (ES2; MTT assay with low doses of Tig-S): ~0.1 µg/mL (≈ 0.149 µM); % of the control cell growth, ES2 (ES2; at 10 ug/ml): 10%; MTT OD as % of the original value, ES2 (ES2; at 10 ug/ml): 12%; IC50, ovarian cancer (OCAR3) cells' growth (OVCAR3; FIG. 37): 2.5 µg/mL (≈ 3.73 µM)
CC=C(C)C(=O)OCC1(C)C(O)CCC2(C)C1CCC1(C)C2CC=C2C3CC(C)(C)C(O)C(OC(=O)C(C)=CC)C3(COC(=O)C(C)=CC)C(O)CC21C (stereo not shown) [Tig-T] | 80 ± 4 | over 90% | less than 40% | – | 16 | 20 | 22 | 10 | 15 | 26 | have anti-cancer activities | 20 | 60 ± 4 | 14 µg/mL | 13 | 26 | 25 | 23 | 18 | –
